Reference: patent US5831026A, “Process for purifying factor VIII” (Pharmacia & Upjohn AB, priority 1994, dated 1998)
Where two headings read alike, the source gives them in different places.

Assays:
[1] = system: metal-dependent proteases; assay: Protease assay with resorufin-labeled casein in harvest solution (conditioned medium); format: biochemical, Chinese Hamster; conditions: for Mean absorbance: 37° C., 2 h preincubation + 17 h, pH 7.5; for Mean absorbance corrected: blank subtracted
Procedure: The method chosen was a protease assay with casein which was resorufin-labeled. By treatment with proteases, resorufin-labeled peptides are released from the casein. The concentration of these resorufin-labeled peptides in the supernatant is a measure of the proteolytic activity present. The test sample was incubated at 37° C. for a period of time which was dependent upon the sample at issue. The absorption wave-length chosen was 574 run throughout the tests. […]
Preincubation of the conditioned medium with or without EDTA was conducted at 37° C. for 2 h. After the addition of substrate, further incubation was carried out for 17 h. The pH in the incubation mixture was 7.5.
Absorbance corrected, refers to the absorption after subtraction of the blank value.
Conditioned medium (containing human serum albumin) was clarified and imidazole subsequently added in an amount ranging from 3.6 mM up to 360 mM.
Conditioned medium (containing human serum albumin) was clarified and histidine subsequently added in an amount ranging from 0.14 mM to 13.6 mM.

[2] = system: metal-dependent proteases; conditions: 3 mM EDTA in washing and elution liquid, harvest solution no. 2
Procedure: The method chosen was a protease assay with casein which was resorufin-labeled. By treatment with proteases, resorufin-labeled peptides are released from the casein. The concentration of these resorufin-labeled peptides in the supernatant is a measure of the proteolytic activity present. The test sample was incubated at 37° C. for a period of time which was dependent upon the sample at issue. The absorption wave-length chosen was 574 run throughout the tests.
Conditioned mediums (containing human serum albumin) from two consecutive harvests, were clarified and buffered with NH4 Ac. Each resulting solution, with a pH of 6.8, was loaded onto a column containing SP SEPHAROSE® FF sold by Pharmacia AB of Uppsala, Sweden. This cation-exchange chromatography step was performed at about 8° C. After washing, factor VIII was eluted with a salt buffer containing 0.8M NaCl and 0.1M NH4 Ac. The washing liquid as well as the elution liquid contained 3 mM EDTA in the tests with harvest solution no. 2. Tests without EDTA present was carried out for comparison (harvest solution no. 1). […] The concentration of unbound Ca^2+ -ions was determined by an ion-selective electrode.

factor VIII = assay: Activity of factor VIII after addition of complexing agent to eluted solution from SP Sepharose FF, COATEST chromogenic assay; format: biochemical; conditions: for Factor VIII activity (IU/ml) / Factor VIII activity (%): Example 8; for Factor VIII activity (%): 0 h without additive = 100
Procedure: Tests without EDTA present were carried out for comparison.
(§1) A conditioned medium (containing human serum albumin) from a different harvest than the previous Examples, was clarified and buffered with NH4 Ac. […] After elution, various amounts of EDTA were added to the resulting solution. Tests without EDTA present were carried out for comparison. The procoagulant activity of factor VIII was determined after storage at ambient temperature for up to 246 hours, in accordance to the procedure described in Example 5.
as §1, with “28” for “246”
A conditioned medium (containing human serum albumin) from a different harvest than the previous Examples, was clarified and buffered with NH4 Ac. The resulting solution was loaded onto a column containing SP SEPHAROSE® FF. This cation-exchange chromatography step was performed at 10° C. […] After elution, EDTA or 1,10-Phenanthroline were added to the resulting solution.

[3] = 3 mM EDTA, incubation 4.5 h ambient
[4] = 3 mM EDTA, incubation 7.5 h ambient
[5] = 3 mM EDTA, incubation 24 h ambient

Structure (SMILES): O=C(O)CN(CCN(CC(=O)O)CC(=O)O)CC(=O)O [EDTA, ethylenediamine tetraacetic acid]
- Protease activity (%) ([1]; 0.23 mM EDTA): 43%
- Mean absorbance ([1]; 0.23 mM EDTA): 1835
- Mean absorbance corrected ([1]; 0.23 mM EDTA): 865
- Protease activity (%) ([1]; 1.2 mM EDTA): 8%
- Mean absorbance ([1]; 1.2 mM EDTA): 1141
- Mean absorbance corrected ([1]; 1.2 mM EDTA): 171
- Protease activity (%) ([1]; 2.3 mM EDTA): 5%
- Mean absorbance ([1]; 2.3 mM EDTA): 1069
- Mean absorbance corrected ([1]; 2.3 mM EDTA): 99
- Protease activity (%) ([1]; 11.5 mM EDTA): 1%
- Mean absorbance ([1]; 11.5 mM EDTA): 994
- Mean absorbance corrected ([1]; 11.5 mM EDTA): 24
- Protease activity (%) ([1]; 23 mM EDTA): -2%
- Mean absorbance ([1]; 23 mM EDTA): 933
- Mean absorbance corrected ([1]; 23 mM EDTA): -37
- Mean absorbance corrected ([2]; blank subtracted): 0.023
- Protease activity (%) ([2]; harvest no. 1 without EDTA = 100): 8%
- Mean absorbance ([2]; incubation 2 h): 0.064
- Activity of factor VIII in % of the initial value (factor VIII; Example 6 (0.4M NaCl eluate), 0.01 mM EDTA, storage 0 h ambient): 100%
- Activity of factor VIII in % of the initial value (factor VIII; Example 6 (0.4M NaCl eluate), 0.01 mM EDTA, storage 2.5 h ambient): 77%
- Activity of factor VIII in % of the initial value (factor VIII; Example 6 (0.4M NaCl eluate), 0.01 mM EDTA, storage 5 h ambient): 59%
- Activity of factor VIII in % of the initial value (factor VIII; Example 6 (0.4M NaCl eluate), 0.01 mM EDTA, storage 10 h ambient): 32%
- Activity of factor VIII in % of the initial value (factor VIII; Example 6 (0.4M NaCl eluate), 0.01 mM EDTA, storage 24 h ambient): 1.9%
- Activity of factor VIII in % of the initial value (factor VIII; Example 6 (0.4M NaCl eluate), 0.03 mM EDTA, storage 0 h ambient): 100%
- Activity of factor VIII in % of the initial value (factor VIII; Example 6 (0.4M NaCl eluate), 0.03 mM EDTA, storage 2.5 h ambient): 76%
- Activity of factor VIII in % of the initial value (factor VIII; Example 6 (0.4M NaCl eluate), 0.03 mM EDTA, storage 5 h ambient): 59%
- Activity of factor VIII in % of the initial value (factor VIII; Example 6 (0.4M NaCl eluate), 0.03 mM EDTA, storage 10 h ambient): 33%
- Activity of factor VIII in % of the initial value (factor VIII; Example 6 (0.4M NaCl eluate), 0.03 mM EDTA, storage 24 h ambient): 2.1%
- Activity of factor VIII in % of the initial value (factor VIII; Example 6 (0.4M NaCl eluate), 0.1 mM EDTA, storage 0 h ambient): 100%
- Activity of factor VIII in % of the initial value (factor VIII; Example 6 (0.4M NaCl eluate), 0.1 mM EDTA, storage 2.5 h ambient): 82%
- Activity of factor VIII in % of the initial value (factor VIII; Example 6 (0.4M NaCl eluate), 0.1 mM EDTA, storage 5 h ambient): 65%
- Activity of factor VIII in % of the initial value (factor VIII; Example 6 (0.4M NaCl eluate), 0.1 mM EDTA, storage 10 h ambient): 43%
- Activity of factor VIII in % of the initial value (factor VIII; Example 6 (0.4M NaCl eluate), 0.1 mM EDTA, storage 24 h ambient): 4.6%
- Activity of factor VIII in % of the initial value (factor VIII; Example 6 (0.4M NaCl eluate), 0.3 mM EDTA, storage 0 h ambient): 100%
- Activity of factor VIII in % of the initial value (factor VIII; Example 6 (0.4M NaCl eluate), 0.3 mM EDTA, storage 2.5 h ambient): 79%
- Activity of factor VIII in % of the initial value (factor VIII; Example 6 (0.4M NaCl eluate), 0.3 mM EDTA, storage 5 h ambient): 71%
- Activity of factor VIII in % of the initial value (factor VIII; Example 6 (0.4M NaCl eluate), 0.3 mM EDTA, storage 10 h ambient): 55%
- Activity of factor VIII in % of the initial value (factor VIII; Example 6 (0.4M NaCl eluate), 0.3 mM EDTA, storage 24 h ambient): 11%
- Activity of factor VIII in % of the initial value (factor VIII; Example 6 (0.4M NaCl eluate), 1.0 mM EDTA, storage 0 h ambient): 100%
- Activity of factor VIII in % of the initial value (factor VIII; Example 6 (0.4M NaCl eluate), 1.0 mM EDTA, storage 2.5 h ambient): 90%
- Activity of factor VIII in % of the initial value (factor VIII; Example 6 (0.4M NaCl eluate), 1.0 mM EDTA, storage 5 h ambient): 97%
- Activity of factor VIII in % of the initial value (factor VIII; Example 6 (0.4M NaCl eluate), 1.0 mM EDTA, storage 10 h ambient): 97%
- Activity of factor VIII in % of the initial value (factor VIII; Example 6 (0.4M NaCl eluate), 1.0 mM EDTA, storage 24 h ambient): 75%
- Activity of factor VIII in % of the initial value (factor VIII; Example 6 (0.4M NaCl eluate), 1.0 mM EDTA, storage 48 h ambient): 54%
- Activity of factor VIII in % of the initial value (factor VIII; Example 6 (0.4M NaCl eluate), 3.0 mM EDTA, storage 0 h ambient): 100%
- Activity of factor VIII in % of the initial value (factor VIII; Example 6 (0.4M NaCl eluate), 3.0 mM EDTA, storage 2.5 h ambient): 92%
- Activity of factor VIII in % of the initial value (factor VIII; Example 6 (0.4M NaCl eluate), 3.0 mM EDTA, storage 5 h ambient): 102%
- Activity of factor VIII in % of the initial value (factor VIII; Example 6 (0.4M NaCl eluate), 3.0 mM EDTA, storage 10 h ambient): 104%
- Activity of factor VIII in % of the initial value (factor VIII; Example 6 (0.4M NaCl eluate), 3.0 mM EDTA, storage 24 h ambient): 100%
- Activity of factor VIII in % of the initial value (factor VIII; Example 6 (0.4M NaCl eluate), 3.0 mM EDTA, storage 48 h ambient): 96%
- Activity of factor VIII in % of the initial value (factor VIII; Example 6 (0.4M NaCl eluate), 3.0 mM EDTA, storage 72 h ambient): 80%
- Activity of factor VIII in % of the initial value (factor VIII; Example 6 (0.4M NaCl eluate), 3.0 mM EDTA, storage 100 h ambient): 91%
- Activity of factor VIII in % of the initial value (factor VIII; Example 6 (0.4M NaCl eluate), 3.0 mM EDTA, storage 246 h ambient): 72%
- Activity of factor VIII in % of the initial value (factor VIII; Example 7 (0.8M NaCl eluate), 1 mM EDTA, storage 0 h ambient): 100%
- Activity of factor VIII in % of the initial value (factor VIII; Example 7 (0.8M NaCl eluate), 1 mM EDTA, storage 5 h ambient): 119%
- Activity of factor VIII in % of the initial value (factor VIII; Example 7 (0.8M NaCl eluate), 1 mM EDTA, storage 28 h ambient): 64%
- Activity of factor VIII in % of the initial value (factor VIII; Example 7 (0.8M NaCl eluate), 2 mM EDTA, storage 0 h ambient): 100%
- Activity of factor VIII in % of the initial value (factor VIII; Example 7 (0.8M NaCl eluate), 2 mM EDTA, storage 5 h ambient): 120%
- Activity of factor VIII in % of the initial value (factor VIII; Example 7 (0.8M NaCl eluate), 2 mM EDTA, storage 28 h ambient): 100%
- Activity of factor VIII in % of the initial value (factor VIII; Example 7 (0.8M NaCl eluate), 3 mM EDTA, storage 0 h ambient): 100%
- Activity of factor VIII in % of the initial value (factor VIII; Example 7 (0.8M NaCl eluate), 3 mM EDTA, storage 5 h ambient): 120%
- Activity of factor VIII in % of the initial value (factor VIII; Example 7 (0.8M NaCl eluate), 3 mM EDTA, storage 28 h ambient): 90%
- Activity of factor VIII in % of the initial value (factor VIII; Example 7 (0.8M NaCl eluate), 4 mM EDTA, storage 0 h ambient): 100%
- Activity of factor VIII in % of the initial value (factor VIII; Example 7 (0.8M NaCl eluate), 4 mM EDTA, storage 5 h ambient): 109%
- Activity of factor VIII in % of the initial value (factor VIII; Example 7 (0.8M NaCl eluate), 4 mM EDTA, storage 28 h ambient): 103%
- Activity of factor VIII in % of the initial value (factor VIII; Example 7 (0.8M NaCl eluate), 5 mM EDTA, storage 0 h ambient): 100%
- Activity of factor VIII in % of the initial value (factor VIII; Example 7 (0.8M NaCl eluate), 5 mM EDTA, storage 5 h ambient): 116%
- Activity of factor VIII in % of the initial value (factor VIII; Example 7 (0.8M NaCl eluate), 5 mM EDTA, storage 28 h ambient): 91%
- Factor VIII activity (IU/ml) (factor VIII; [3]): 813 IU/ml
- Factor VIII activity (%) (factor VIII; [3]): 92%
- Factor VIII activity (IU/ml) (factor VIII; [4]): 862 IU/ml
- Factor VIII activity (%) (factor VIII; [4]): 97%
- Factor VIII activity (IU/ml) (factor VIII; [5]): 763 IU/ml
- Factor VIII activity (%) (factor VIII; [5]): 86%
